Laboratory results: the supplement of paper PMC13380429

What was measured:
Settings in all cases: 72 h
Calu-3 [1] = assay: drug sensitivity score (DSS) for viability; higher = more toxic; extreme values may be limits of the assay
Vero E6 [2] = assay: as above
U2OS [3] = assay: as above
Caco-2 [4] = assay: as above
Calu-3 [5] = assay: relative viability EC50 (midpoint between 100% and the lowest measured viability); higher = less toxic
Vero E6 [6] = assay: as above
U2OS [7] = assay: as above
Caco-2 [8] = assay: as above
Calu-3 [9] = assay: cell viability relative to DMSO; higher = less toxic
Vero E6 [10] = assay: as above
U2OS [11] = assay: as above
Caco-2 [12] = assay: as above
HepG2 [13] = assay: drug sensitivity score (DSS) for viability; higher = more toxic; extreme values may be limits of the assay
HepG2 [14] = assay: relative viability EC50 (midpoint between 100% and the lowest measured viability); higher = less toxic
HepG2 [15] = assay: cell viability relative to DMSO; higher = less toxic

| SMILES | drug sensitivity score (Calu-3 [1]) | drug sensitivity score (Vero E6 [2]) | drug sensitivity score (U2OS [3]) | drug sensitivity score (Caco-2 [4]) | relative viability EC50 (Calu-3 [5]) [µM] | relative viability EC50 (Vero E6 [6]) [µM] | relative viability EC50 (U2OS [7]) [µM] | relative viability EC50 (Caco-2 [8]) [µM] | cell viability (Calu-3 [9]; 1 nM) [%] | cell viability (Calu-3 [9]; 10 nM) [%] | cell viability (Calu-3 [9]; 100 nM) [%] | cell viability (Calu-3 [9]; 1000 nM) [%] | cell viability (Calu-3 [9]; 10000 nM) [%] | cell viability (Vero E6 [10]; 1 nM) [%] | cell viability (Vero E6 [10]; 10 nM) [%] | cell viability (Vero E6 [10]; 100 nM) [%] | cell viability (Vero E6 [10]; 1000 nM) [%] | cell viability (Vero E6 [10]; 10000 nM) [%] | cell viability (U2OS [11]; 1 nM) [%] | cell viability (U2OS [11]; 10 nM) [%] | cell viability (U2OS [11]; 100 nM) [%] | cell viability (U2OS [11]; 1000 nM) [%] | cell viability (U2OS [11]; 10000 nM) [%] | cell viability (Caco-2 [12]; 1 nM) [%] | cell viability (Caco-2 [12]; 10 nM) [%] | cell viability (Caco-2 [12]; 100 nM) [%] | cell viability (Caco-2 [12]; 1000 nM) [%] | cell viability (Caco-2 [12]; 10000 nM) [%] | drug sensitivity score (HepG2 [13]) | relative viability EC50 (HepG2 [14]) [µM] | cell viability (HepG2 [15]; 1 nM) [%] | cell viability (HepG2 [15]; 10 nM) [%] | cell viability (HepG2 [15]; 100 nM) [%] | cell viability (HepG2 [15]; 1000 nM) [%] | cell viability (HepG2 [15]; 10000 nM) [%] |
| --- | --- | --- | --- | --- | --- | --- | --- | --- | --- | --- | --- | --- | --- | --- | --- | --- | --- | --- | --- | --- | --- | --- | --- | --- | --- | --- | --- | --- | --- | --- | --- | --- | --- | --- | --- |
| O=C(N/N=C/c1ccc(O)c(O)c1)c1cc2ccccc2cc1O [dynasore] | 0 | 0 | 0 | 0 | > 10 | > 10 | > 10 | > 10 | 108 | 97.5 | 104 | 103 | 97.4 | 103 | 98.3 | 102 | 103 | 97.2 | 95.9 | 102 | 103 | 106 | 87.9 | 98.4 | 95.8 | 101 | 104 | 92.8 |  |  |  |  |  |  |  |
| C=C1CCN([C@H](C)[C@](O)(Cn2cncn2)c2ccc(F)cc2F)CC1 [efinaconazole] | 0 |  | 0 | 1.7 | > 10 |  | > 10 | > 10 | 88 | 99.3 | 94.7 | 96.9 | 91.4 |  |  |  |  |  | 99.2 | 101 | 96.2 | 103 | 96.1 | 96.9 | 98.3 | 100 | 91.8 | 78.3 | 0 | > 10 | 102 | 98.3 | 92.4 | 95.9 | 91.5 |
| CNC(=O)c1c(I)c(NC(C)=O)c(I)c(C(=O)O)c1I [iothalamic-acid-d3] | 0.1 |  | 0 | 0 | > 10 |  | > 10 | > 10 | 94.6 | 99 | 80.3 | 102 | 85.2 |  |  |  |  |  | 99.6 | 109 | 104 | 106 | 103 | 91.8 | 91.5 | 87.6 | 94.5 | 102 | 0 | > 10 | 107 | 101 | 107 | 94.9 | 100 |
| Cc1c(OCC(F)(F)F)ccnc1C[S+]([O-])c1nc2ccccc2[nH]1 (configuration not stated) [lansoprazole] | 0 |  | 0 | 0 | > 10 |  | > 10 | > 10 | 93.1 | 107 | 95.1 | 107 | 92.3 |  |  |  |  |  | 94.8 | 101 | 93 | 93.8 | 93.8 | 99.7 | 94.3 | 96.6 | 97 | 92.6 | 0 | > 10 | 104 | 96.8 | 96.1 | 92.1 | 96.5 |
| CC(C)Nc1nc2cc(Cl)c(Cl)cc2n1[C@H]1O[C@@H](CO)[C@H](O)[C@@H]1O [maribavir] | 0 |  | 0 | 0 | > 10 |  | > 10 | > 10 | 96.4 | 112 | 106 | 101 | 102 |  |  |  |  |  | 97.7 | 101 | 92.1 | 102 | 93.7 | 96.9 | 98.9 | 97.3 | 99.5 | 91 | 0 | > 10 | 106 | 104 | 110 | 107 | 97.9 |
| CC1CCN(CCCC(=O)c2ccc(F)cc2)CC1 [melperone] |  | 0 | 0 | 0 |  | > 10 | > 10 | > 10 |  |  |  |  |  | 100 | 98 | 98.9 | 93 | 100 | 99.4 | 98.6 | 95.5 | 100 | 93.7 | 99.3 | 103 | 98.3 | 93.5 | 89.9 | 0 | > 10 | 104 | 96.5 | 102 | 99.7 | 101 |
| CC12CC3CC(C)(C1)CC(N)(C3)C2 [memantine] | 0.1 | 0 | 0 | 0 | > 10 | > 10 | > 10 | > 10 | 101 | 98.8 | 98.3 | 99.7 | 87.1 | 106 | 99.1 | 105 | 102 | 96.6 | 97.3 | 96.4 | 96.6 | 99.6 | 98.9 | 102 | 91.8 | 90.3 | 96.9 | 96.9 |  |  |  |  |  |  |  |
| CCCCCCCCCCCCCC(=O)[O-].CCCCCCCCCCCCCC(=O)[O-].N[C@@H]1CCCC[C@H]1N.[Pt+2] [miriplatin] | 0.1 |  | 0 | 0 | > 10 |  | > 10 | > 10 | 90.9 | 101 | 104 | 99.2 | 87.4 |  |  |  |  |  | 100 | 97.7 | 99.2 | 95.4 | 99.3 | 102 | 93.5 | 98.1 | 91.2 | 104 | 0 | > 10 | 105 | 101 | 106 | 97.1 | 92.1 |
| O=C(O)/C=C/c1ccc(O)cc1 [naringeninic-acid] | 0 |  | 0 | 0.1 | > 10 |  | > 10 | > 10 | 93.2 | 109 | 100 | 109 | 108 |  |  |  |  |  | 102 | 103 | 98.9 | 106 | 101 | 88 | 91.5 | 86.1 | 104 | 85.4 | 0 | > 10 | 92 | 108 | 97.5 | 96.8 | 94 |
| COCCOC(=O)C1=C(C)NC(C)=C(C(=O)OC(C)C)C1c1cccc([N+](=O)[O-])c1 (configuration not stated) [nimodipine] | 0 | 0 | 0 | 0 | > 10 | > 10 | > 10 | > 10 | 101 | 98.2 | 104 | 96.7 | 97.8 | 98.6 | 100 | 103 | 102 | 88.1 | 97.2 | 97.8 | 104 | 97.8 | 95.9 | 98.4 | 93.4 | 87.8 | 98.1 | 91.5 |  |  |  |  |  |  |  |
| CN[C@H](CC(C)C)C(=O)N[C@H]1C(=O)N[C@@H](CC(N)=O)C(=O)N[C@H]2C(=O)N[C@H]3C(=O)N[C@H](C(=O)N[C@H](C(=O)O)c4cc(O)cc(O)c4-c4cc3ccc4O)[C@H](O[C@H]3C[C@](C)(N)[C@@H](O)[C@H](C)O3)c3ccc(c(Cl)c3)Oc3cc2cc(c3O[C@@H]2O[C@H](CO)[C@@H](O)[C@H](O)[C@H]2O[C@H]2C[C@](C)(NCc3ccc(-c4ccc(Cl)cc4)cc3)[C@@H](O)[C@H](C)O2)Oc2ccc(cc2Cl)[C@H]1O [oritavancin] |  | 0 | 0 | 0 |  | > 10 | > 10 | > 10 |  |  |  |  |  | 108 | 113 | 93.2 | 106 | 95.7 | 102 | 100 | 103 | 96.5 | 102 | 97.2 | 97.7 | 98 | 90.4 | 102 | 0 | > 10 | 104 | 106 | 98.9 | 104 | 105 |
| O=C1c2cc(Cl)ccc2OC2CCON12 (configuration not stated) [seclazone] |  | 0 | 0 | 0 |  | > 10 | > 10 | > 10 |  |  |  |  |  | 90 | 98.2 | 92.7 | 95.2 | 102 | 106 | 96.7 | 101 | 105 | 100 | 108 | 86.3 | 91 | 97.4 | 99.2 | 0 | > 10 | 102 | 108 | 94.8 | 97.8 | 107 |
| CCOC(=O)N1CSC[C@H]1C(=O)O [telmesteine] | 0 |  | 0 | 0 | > 10 |  | > 10 | > 10 | 97.9 | 91 | 94.8 | 107 | 102 |  |  |  |  |  | 97.1 | 100 | 99.2 | 96.4 | 99 | 109 | 93.6 | 100 | 90.2 | 95.5 | 0.2 | > 10 | 101 | 109 | 105 | 90.1 | 88.9 |
| C=C(NC(=O)C(=C)NC(=O)c1csc(C2=N[C@@H]3c4csc(n4)[C@H]4NC(=O)c5csc(n5)[C@H]([C@](C)(O)[C@@H](C)O)NC(=O)[C@H]5CSC(=N5)/C(=C/C)NC(=O)[C@H]([C@@H](C)O)NC(=O)c5csc(n5)[C@]3(CC2)NC(=O)[C@H](C)NC(=O)C(=C)NC(=O)[C@H](C)NC(=O)[C@H]([C@@H](C)CC)N[C@@H]2C=Cc3c([C@H](C)O)cc(nc3[C@H]2O)C(=O)O[C@@H]4C)n1)C(N)=O [thiostrepton] | 0 |  | 0.7 | 0.2 | > 10 |  | > 10 | > 10 | 101 | 95 | 97.8 | 99.1 | 110 |  |  |  |  |  | 100 | 94 | 95.8 | 75.3 | 93.6 | 102 | 89.3 | 89.5 | 82.9 | 96.9 | 4.3 | > 10 | 111 | 102 | 81 | 87.6 | 84.5 |
